Assay results as given in US10246453B2, “Benzenesulfonamide compounds and their use as therapeutic agents” (Xenon Pharmaceuticals Inc., priority 2016, dated 2019).
pIC50: −log10 of the molar value. Structures can show the parent of a compound that is named as a salt.

Assays:
[1] = target: NaV1.1 (Homo sapiens (Human), UniProt P35498); assay: Sodium Influx Assay (Flux), NaV1.1; assay type: cell-based; conditions: Trex HEK293 cells, ANG2 dye; arithmetic mean
[2] = target: NaV1.5 (Homo sapiens (Human), UniProt Q14524); assay: Sodium Influx Assay (Flux), NaV1.5; conditions: read-out: Flux NaV1.5 IC50; Trex HEK293 cells, ANG2 dye; arithmetic mean
NaV1.5, sequence (Q14524 other isoform, or with tags, fused parts or gaps): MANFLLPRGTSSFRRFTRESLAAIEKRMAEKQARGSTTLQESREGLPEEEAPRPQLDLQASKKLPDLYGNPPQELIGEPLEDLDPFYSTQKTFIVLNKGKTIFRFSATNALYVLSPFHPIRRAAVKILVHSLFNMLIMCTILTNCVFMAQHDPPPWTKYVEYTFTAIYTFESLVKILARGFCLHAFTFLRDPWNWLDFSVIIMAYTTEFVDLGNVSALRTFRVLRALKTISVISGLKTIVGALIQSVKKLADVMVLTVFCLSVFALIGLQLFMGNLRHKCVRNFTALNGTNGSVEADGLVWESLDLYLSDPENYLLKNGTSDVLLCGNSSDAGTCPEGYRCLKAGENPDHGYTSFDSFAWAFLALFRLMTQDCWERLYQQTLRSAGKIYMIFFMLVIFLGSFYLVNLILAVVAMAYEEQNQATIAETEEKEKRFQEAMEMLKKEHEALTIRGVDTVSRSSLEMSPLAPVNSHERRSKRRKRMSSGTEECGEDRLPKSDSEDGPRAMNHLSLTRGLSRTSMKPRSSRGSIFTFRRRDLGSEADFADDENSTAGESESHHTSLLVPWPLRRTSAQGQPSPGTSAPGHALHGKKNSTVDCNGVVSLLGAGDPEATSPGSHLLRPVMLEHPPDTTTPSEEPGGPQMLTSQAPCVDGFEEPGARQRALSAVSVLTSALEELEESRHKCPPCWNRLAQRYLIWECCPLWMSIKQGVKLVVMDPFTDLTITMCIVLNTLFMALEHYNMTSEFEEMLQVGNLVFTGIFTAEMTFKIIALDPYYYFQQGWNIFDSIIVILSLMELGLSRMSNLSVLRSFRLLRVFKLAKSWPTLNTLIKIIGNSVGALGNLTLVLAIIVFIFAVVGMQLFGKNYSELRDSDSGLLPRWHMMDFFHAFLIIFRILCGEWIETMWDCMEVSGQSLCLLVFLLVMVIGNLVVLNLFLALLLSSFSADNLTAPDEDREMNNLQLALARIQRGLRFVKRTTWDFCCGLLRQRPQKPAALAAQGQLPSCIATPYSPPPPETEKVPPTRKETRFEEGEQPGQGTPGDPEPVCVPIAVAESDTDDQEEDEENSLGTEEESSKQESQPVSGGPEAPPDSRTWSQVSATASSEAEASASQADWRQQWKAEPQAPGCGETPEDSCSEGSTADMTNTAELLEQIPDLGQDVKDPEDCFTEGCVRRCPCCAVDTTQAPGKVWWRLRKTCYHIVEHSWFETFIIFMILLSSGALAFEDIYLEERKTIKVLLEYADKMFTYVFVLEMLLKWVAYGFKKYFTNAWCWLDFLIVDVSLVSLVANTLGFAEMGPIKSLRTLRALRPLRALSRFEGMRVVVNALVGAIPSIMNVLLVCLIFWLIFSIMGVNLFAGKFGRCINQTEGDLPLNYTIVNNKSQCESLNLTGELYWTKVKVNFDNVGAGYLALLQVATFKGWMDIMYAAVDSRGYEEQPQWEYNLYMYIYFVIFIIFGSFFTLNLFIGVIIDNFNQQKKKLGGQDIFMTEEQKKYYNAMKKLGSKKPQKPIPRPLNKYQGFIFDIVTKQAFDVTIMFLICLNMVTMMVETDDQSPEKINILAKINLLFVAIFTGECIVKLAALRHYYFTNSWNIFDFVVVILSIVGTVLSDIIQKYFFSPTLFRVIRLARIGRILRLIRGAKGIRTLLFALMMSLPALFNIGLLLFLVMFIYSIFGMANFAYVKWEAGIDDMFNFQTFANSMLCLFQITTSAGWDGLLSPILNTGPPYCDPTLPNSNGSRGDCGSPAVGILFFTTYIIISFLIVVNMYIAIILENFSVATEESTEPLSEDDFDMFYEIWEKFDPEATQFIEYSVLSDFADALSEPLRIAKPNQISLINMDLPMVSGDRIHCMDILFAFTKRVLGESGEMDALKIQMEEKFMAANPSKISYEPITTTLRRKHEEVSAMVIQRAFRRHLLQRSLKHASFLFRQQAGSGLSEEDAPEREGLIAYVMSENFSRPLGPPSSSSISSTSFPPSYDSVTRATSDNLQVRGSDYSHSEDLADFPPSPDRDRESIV

[3] = target: NaV1.6 (Homo sapiens (Human), UniProt Q9UQD0); assay: Sodium Influx Assay (Flux), NaV1.6; conditions: read-out: Flux NaV1.6 IC50; Trex HEK293 cells, ANG2 dye; arithmetic mean

Structure (SMILES) | pIC50 [1] | pIC50 [2] | pIC50 [3]
Cc1cc(S(=O)(=O)Nc2cscn2)c(F)cc1O[C@H]1CCN(Cc2ccccc2)C1 [Example 273, (S)-4-((1-benzylpyrrolidin-3-yl)oxy)-2-fluoro-5-methyl-N-(thiazol-4-yl)benzenesulfonamide 2,2,2-trifluoroacetate] | 4.65 | 5.15 | 5.70
O=S(=O)(Nc1cscn1)c1c(F)cc(O[C@H]2CCN(Cc3ccccc3)C2)c(Br)c1F [Example 274, (S)-4-((1-benzylpyrrolidin-3-yl)oxy)-3-bromo-2,6-difluoro-N-(thiazol-4-yl)benzenesulfonamide formate] | < 4.52 | 5.00 | 5.73
C=Cc1c(O[C@H]2CCN(Cc3ccccc3)C2)cc(F)c(S(=O)(=O)Nc2cscn2)c1F [Example 275, (S)-4-((1-benzylpyrrolidin-3-yl)oxy)-2,6-difluoro-N-(thiazol-4-yl)-3-vinylbenzenesulfonamide 2,2,2-trifluoroacetate] | 4.53 | 4.76 | 6.13
CCc1c(O[C@H]2CCN(Cc3ccccc3)C2)cc(F)c(S(=O)(=O)Nc2cscn2)c1F [Example 276, (S)-4-((1-benzylpyrrolidin-3-yl)oxy)-3-ethyl-2,6-difluoro-N-(thiazol-4-yl)benzenesulfonamide 2,2,2-trifluoroacetate] | 4.73 | 4.75 | 6.25
Cc1cc(S(=O)(=O)Nc2cscn2)c(F)cc1N(C)[C@H]1CCN(Cc2ccccn2)C1 [Example 278, (S)-2-fluoro-5-methyl-4-(methyl(1-(pyridin-2-ylmethyl)pyrrolidin-3-yl)amino)-N-(thiazol-4-yl)benzenesulfonamide 2,2,2-trifluoroacetate] | < 4.52 | < 4.52 | 6.05
Cc1cc(S(=O)(=O)Nc2cscn2)ccc1N(C)[C@H]1CCN(Cc2cc(F)ccc2F)C1 [Example 285, (S)-4-((1-(2,5-difluorobenzyl)pyrrolidin-3-yl)(methyl)amino)-3-methyl-N-(thiazol-4-yl)benzenesulfonamide 2,2,2-trifluoroacetate] | 5.36 | 5.57 | 6.41
CN(c1cc(F)c(S(=O)(=O)Nc2cscn2)c(F)c1)[C@H]1CCN(Cc2ccccc2)C1 [Example 286, (S)-4-((1-benzylpyrrolidin-3-yl)(methyl)amino)-2,6-difluoro-N-(thiazol-4-yl)benzenesulfonamide formate] | 5.64 | 5.70 | 5.65
CN(c1cc(F)c(S(=O)(=O)Nc2cscn2)c(F)c1)[C@H]1CCN(Cc2cccc(C(F)F)c2)C1 [Example 287, (S)-4-((1-(3-(difluoromethyl)benzyl)pyrrolidin-3-yl)(methyl)amino)-2,6-difluoro-N-(thiazol-4-yl)benzenesulfonamide 2,2,2-trifluoroacetate] | 5.11 | 5.08 | 5.18
Cc1cc(S(=O)(=O)Nc2cscn2)c(F)cc1N[C@H]1CCN(Cc2ccccc2)C1 [Example 288, (S)-4-((1-benzylpyrrolidin-3-yl)amino)-2-fluoro-5-methyl-N-(thiazol-4-yl)benzenesulfonamide 2,2,2-trifluoroacetate] | 4.80 | 4.56 | 5.36
CN(c1cc(F)c(S(=O)(=O)Nc2cscn2)cc1C1CC1)[C@H]1CCN(Cc2ccccc2)C1 [Example 289, (S)-4-((1-benzylpyrrolidin-3-yl)(methyl)amino)-5-cyclopropyl-2-fluoro-N-(thiazol-4-yl)benzenesulfonamide 2,2,2-trifluoroacetate] | 5.15 | 4.71 | 5.89
CCc1cc(S(=O)(=O)Nc2cscn2)c(F)cc1N(C)[C@H]1CCN(Cc2ccccc2)C1 [Example 290, (S)-4-((1-benzylpyrrolidin-3-yl)(methyl)amino)-5-ethyl-2-fluoro-N-(thiazol-4-yl)benzenesulfonamide 2,2,2-trifluoroacetate] | 5.20 | 5.28 | 5.75
C[C@H](c1cc(C(F)F)ccc1F)N1CCC(Oc2ccc(S(=O)(=O)Nc3cscn3)cc2Cl)CC1 [Example 292, (R)-3-chloro-4-((1-(1-(5-(difluoromethyl)-2-fluorophenyl)ethyl)piperidin-4-yl)oxy)-N-(thiazol-4-yl)benzenesulfonamide formate] | 5.42 | 5.73 | 5.56
CN(c1cc(F)c(S(=O)(=O)Nc2cscn2)cc1F)[C@H]1CCN(Cc2ccccc2)C1 [Example 293, (S)-4-((1-benzylpyrrolidin-3-yl)(methyl)amino)-2,5-difluoro-N-(thiazol-4-yl)benzenesulfonamide 2,2,2-trifluoroacetate] | < 4.52 | < 4.52 | 4.96
CN(c1ccc(S(=O)(=O)Nc2cscn2)cc1C(F)(F)F)[C@H]1CCN(Cc2ccccc2)C1 [Example 294, (S)-4-((1-benzylpyrrolidin-3-yl)(methyl)amino)-N-(thiazol-4-yl)-3-(trifluoromethyl)benzenesulfonamide formate] | 4.81 | 4.78 | 5.63
Cc1c(OC2CCN(Cc3ccccc3)CC2)ccc(S(=O)(=O)Nc2cscn2)c1F [Example 299, 4-((1-benzylpiperidin-4-yl)oxy)-2-fluoro-3-methyl-N-(thiazol-4-yl)benzenesulfonamide hydrochloride] | < 4.52 | 4.57 | 6.49
C[C@@H](c1ccccc1)N1CCC(Oc2ccc(S(=O)(=O)Nc3ccncn3)cc2Cl)CC1 [Example 301, (S)-3-chloro-4-((1-(1-phenylethyl)piperidin-4-yl)oxy)-N-(pyrimidin-4-yl)benzenesulfonamide] | < 4.52 | < 4.52 | 5.67
Cc1c(N(C)[C@H]2CCN(Cc3ccccc3)C2)cc(F)c(S(=O)(=O)Nc2ccc(F)cn2)c1F [Example 302, (S)-4-((1-benzylpyrrolidin-3-yl)(methyl)amino)-2,6-difluoro-N-(5-fluoropyridin-2-yl)-3-methylbenzenesulfonamide formate] | 5.02 | 4.54 | 5.94
O=S(=O)(Nc1cscn1)c1ccc(OC2CCN(C3(c4ccccc4)CC3)CC2)c(Cl)c1 [Example 303, 3-chloro-4-((1-(1-phenylcyclopropyl)piperidin-4-yl)oxy)-N-(thiazol-4-yl)benzenesulfonamide] | 5.15 | 5.34 | 5.61
C[C@H](c1ccccc1)N1CCC(Oc2ccc(S(=O)(=O)Nc3ncc(F)cn3)cc2Cl)CC1 [Example 304, (R)-3-chloro-N-(5-fluoropyrimidin-2-yl)-4-((1-(1-phenylethyl)piperidin-4-yl)oxy)benzenesulfonamide] | < 4.52 | < 4.52 | 5.61
Cc1cc(S(=O)(=O)Nc2ccc(F)cn2)c(F)cc1N(C)[C@H]1CCN(Cc2ccccc2)C1 [Example 306, (S)-4-((1-benzylpyrrolidin-3-yl)(methyl)amino)-2-fluoro-N-(5-fluoropyridin-2-yl)-5-methylbenzenesulfonamide] | 5.17 | 4.92 | 5.34
